Measurements taken from patent US20260226105A1, “Antimicrobial And Antibiofilm Peptides Sequences With Metal-Binding Motifs” (The Trustee of the University of Pennsylvania, priority 2021, published 2026).
≈ marks a conversion by molar mass, not a printed value. Where “and” joins values, the source holds several entries; their conditions need not be identical. Equal entries are not always repeated. Where two headings read alike, the source gives them in different places. Each block holds one molecule with its values, some of them ahead of it. Ends that are not written are not given here.

Tests used:
[1] = test system: K. pneumoniae (ATCC13883); details: Table 3, agent alone
[2] = test system: E. coli (KpC1812446); details: agent alone, BM2 minimal medium
[3] = test system: E. coli MG1655; details: for MIC, TETA: cell-impermeable Cu(II) chelator triethylenetetramine (TETA) 200 μM; for MIC, TTM: cell-permeable Cu(II) chelator tetrathiolmolybdate (TTM) 200 μM
[4] = test system: E. coli (KpC+1812446) biofilm; details: for FICI: Biofilm; for MBIC Antibiotic alone / MBIC Antibiotic + Peptide: Table 7, biofilm
[5] = test system: E. coli (ATCC 25922); details: for MIC in Cu(II) supplemented medium: Cu(II) supplemented medium (0.25 μM); for MIC: MH broth, 12 h, 37° C.
[6] = test system: E. coli (KpC+ 2101123); details: for MIC in Cu(II) supplemented medium: Cu(II) supplemented medium (0.25 μM); for MIC: MH broth, 12 h, 37° C.
[7] = test system: K. pneumoniae (KpC+ 1825971); details: for MIC in Cu(II) supplemented medium: Cu(II) supplemented medium (0.25 μM); for MIC: MH broth, 12 h, 37° C.
[8] = test system: E. coli (KpC1812446); details: Table 3, agent alone
[9] = test system: E. coli (KpC+1812446) planktonic cells; details: for FICI: Planktonic; for MBIC Antibiotic alone / MBIC Antibiotic + Peptide: Table 8, planktonic cells
[10] = test system: E. coli (ATCC 25922); details: agent alone, BM2 minimal medium
[11] = test system: MRSA (3730529); details: MH broth, 12 h, 37° C.
[12] = test system: K. pneumoniae (KpC1825971); details: agent alone, BM2 minimal medium
[13] = test system: S. aureus (ATCC 25923); details: for MIC in Cu(II) supplemented medium: Cu(II) supplemented medium (0.25 μM); for MIC: MH broth, 12 h, 37° C.
[14] = test system: E. coli KpC+1812446; format: in vivo, mice; details: for in vivo toxicity: infected Balb/C mice, 5 and 10 mg·Kg^−1
Description: Male Balb/C (18-20 g) mice from the Biotério Central do Campus da USP in Ribeirão Preto, São Paulo, were kept in groups of 5 per cage at 22° C. with normal cycles of light and free access to food and water. The care and use of the animals were approved by the Ethics Committee of Universidade Católica Dom Bosco number 019/2016. We assessed the ability of the peptides to protect the mice from lethal systemic infections induced with E. coli KpC+1812446. The mice (n=40) were randomly placed into eight groups of five mice each, and each mouse was injected intraperitoneally with 200 μL of saline solution containing 2×10^7 CFU of E. coli KpC+1812446. Intraperitoneal treatment with 5 or 10 mg·Kg^−1 of each peptide was initiated after one hour of infection and repeated at 24 h intervals for seven days^61. Gentamicin at 10 mg·Kg^−1 of body weight and normal saline were used as positive and negative controls, respectively.

[15] = test system: P. aeruginosa (ATCC 27853); details: MH broth, 12 h, 37° C.
[16] = test system: K. pneumoniae (KpC1825971); details: Table 3, agent alone
[17] = test system: E. coli (KpC+ 1812446); details: MH broth, 12 h, 37° C.
[18] = test system: K. pneumoniae (ATCC 13883); details: MH broth, 12 h, 37° C.
[19] = test system: K. pneumoniae (ATCC13883); details: agent alone, BM2 minimal medium
[20] = test system: E. coli (ATCC25922); details: Table 3, agent alone
[21] = test system: E. coli (KpC1812446); test: microbe, parasite or virus in culture; details: Escherichia coli
[22] = test system: K. pneumoniae (ATCC13883); test: microbe, parasite or virus in culture; details: Klebsiella pneumoniae
[23] = antibiotic in combination with CM15
[24] = antibiotic in combination with GGH-CM15
[25] = antibiotic in combination with VIH-CM15

Molecule: VIHKWKLFKKIGAVLKVL [VIH-CM15]
MIC [1]: 30 µM | MBIC [2]: 8 µM | MIC, TETA [3]: 1 µM | MIC, TTM [3]: 32 µM | MIC, No Chelator [3]: 0.5 µM | FICI ([4]; peptide + AmP): 1.5 | FICI ([4]; peptide + CHL): 1.38 | FICI ([4]; peptide + MER): 0.185 and 0.19 | FICI ([4]; peptide + STR): 1.0 | FICI ([4]; peptide + TRI): 1.0 | MIC in Cu(II) supplemented medium [5]: 1 µM | MIC [5]: 1 µM | MIC in Cu(II) supplemented medium [6]: 2 µM | MIC [6]: 2 µM | MIC in Cu(II) supplemented medium [7]: 1 µM | MIC [7]: 1 µM | MIC [8]: 4 µM | FICI ([9]; peptide + AmP): 2.0 | FICI ([9]; peptide + CHL): 1.0 and 1.002 | FICI ([9]; peptide + MER): 1.0 | FICI ([9]; peptide + STR): 1.29 | FICI ([9]; peptide + TRI): 1.0 | MBIC [10]: 4 µM | MIC [11]: 2 µM | MBIC [12]: 4 µM | MIC in Cu(II) supplemented medium [13]: 1 µM | MIC [13]: 1 µM | in vivo toxicity [14]: decreased the toxicity of CM15 | MIC [15]: 4 µM | MIC [16]: 8 µM | MIC [17]: 4 µM | MIC [18]: 1 µM | MBIC [19]: >30 µM | MIC [20]: 4 µM

MIC [21]: 14 µM (≈ 8.14 µg/mL) | MIC [22]: > 110 µM
Molecule: [H]/N=C(/N)N[C@H]1[C@H](O)[C@@H](O)[C@H](O[C@@H]2O[C@@H](C)[C@](O)(C=O)[C@H]2O[C@@H]2O[C@@H](CO)[C@H](O)[C@@H](O)[C@@H]2NC)[C@@H](N/C(N)=N\[H])[C@@H]1O [STR, streptomycin]
MBIC [2]: 14 µM | MBIC Antibiotic alone [4]: 14 µM | MBIC Antibiotic + Peptide [4, 23]: 4 µM | MBIC Antibiotic + Peptide [4, 24]: 4 µM | MBIC Antibiotic + Peptide [4, 25]: 7 µM | MBIC Antibiotic alone [9]: 14 µM | MBIC Antibiotic + Peptide [9, 23]: 4 µM | MBIC Antibiotic + Peptide [9, 24]: 14 µM | MBIC Antibiotic + Peptide [9, 25]: 0.4 µM | MBIC [19]: >110 µM

MIC [21]: > 198 µM | MIC [22]: > 198 µM
Molecule: O=C(N[C@H](CO)[C@H](O)c1ccc([N+](=O)[O-])cc1)C(Cl)Cl [CHL, chloramphenicol]
MBIC [2]: >198 µM | MBIC Antibiotic alone [4]: 396 µM | MBIC Antibiotic + Peptide [4, 23]: 396 µM | MBIC Antibiotic + Peptide [4, 24]: 396 µM | MBIC Antibiotic + Peptide [4, 25]: 396 µM | MBIC Antibiotic alone [9]: 396 µM | MBIC Antibiotic + Peptide [9, 23]: 0.8 µM | MBIC Antibiotic + Peptide [9, 24]: 3 µM | MBIC Antibiotic + Peptide [9, 25]: 0.8 µM | MBIC [19]: >198 µM

Molecule: GGHKWKLFKKIGAVLKVL [GGH-CM15]
MIC [1]: >32 µM | MBIC [2]: 4 µM | MIC, TETA [3]: 2 µM | MIC, TTM [3]: 32 µM | MIC, No Chelator [3]: 1 µM | FICI ([4]; peptide + AmP): 2.0 | FICI ([4]; peptide + CHL): 2.0 | FICI ([4]; peptide + MER): 0.27 | FICI ([4]; peptide + STR): 0.78 and 0.75 | FICI ([4]; peptide + TRI): 1.5 | MIC in Cu(II) supplemented medium [5]: 2 µM | MIC [5]: 2 µM | MIC in Cu(II) supplemented medium [6]: 2 µM | MIC [6]: 2 µM | MIC in Cu(II) supplemented medium [7]: 2 µM | MIC [7]: 2 µM | MIC [8]: 8 µM | FICI ([9]; peptide + AmP): 1.52 and 1.5 | FICI ([9]; peptide + CHL): 0.5 and 0.5008 | FICI ([9]; peptide + MER): 0.52 | FICI ([9]; peptide + STR): 1.5 | FICI ([9]; peptide + TRI): 0.5 | MBIC [10]: 4 µM | MIC [11]: 2 µM | MBIC [12]: 4 µM | MIC in Cu(II) supplemented medium [13]: 1 µM | MIC [13]: 1 µM | mouse deaths ([14]; 5 and 10 mg·Kg^−1 intraperitoneal): all the mice died on the first day | in vivo toxicity [14]: did not decrease the toxicity of CM15 | MIC [15]: 1 µM | MIC [16]: 8 µM | MIC [17]: 2 µM | MIC [18]: 1 µM | MBIC [19]: >32 µM | MIC [20]: 4 µM
